Results as given in patent US20230036041A1, “SORTILIN BINDING CONJUGATE COMPOUNDS, COMPOSITIONS AND USES THEREOF FOR TREATING CANCER” (THERATECHNOLOGIES INC., priority 2019, published 2023).
Entries after “also recorded” stand apart in the source; their conditions may differ. Read-outs that look alike come from different tables or passages of the source. Non-standard residues stand in square brackets, D forms with d. Residues, ends and D or L forms follow the SMILES beside them. *: point of attachment. X1 = CC(=O)O[C@@]12CO[C@@H]1C[C@H](O)[C@@]1(C)C(=O)[C@H](O)C3=C(C)[C@@H](OC(=O)[C@H](OC(=O)CCC(=O)*)[C@@H](NC(=O)OC(C)(C)C)c4ccccc4)C[C@@](O)([C@@H](OC(=O)c4ccccc4)[C@H]21)C3(C)C; Nle = CCCC[C@H](N)C(=O)O

Columns and labels:
SK-MEL-28 xenografts = format: in vivo, mice
Description: (§1) Briefly, stock solution of formulated TH1902 was prepared as sterile aliquots of 10 mg/mL frozen liquid solutions (see below). On the day of animal dosing, frozen aliquots were thawed 30 minutes at room temperature then diluted with sterile 5% dextrose injection, USP (D5W) to the desired concentration for injection (i.e. typically 5.4 or 1.35 mg/mL).
(§2) TH1902 frozen stock solution were prepared as follow: • 1. Make the TH1902 diluent solution (Diluent) the day before the solubilization. Diluent: 10% Tween™ 80 in D5W USP (w/v) with 0.04% of formic acid (v/v), ˜pH 2.9. Leave solution at room temperature until TH1902 solubilization (next day). • 2. Weigh 60 mg of TH1902 API into a 14 ml glass vial with screw caps. Adjust TH1902 weights to reflect TH1902 purity according to the certificate of analysis. • 3. Add 90% of diluent solution needed to prepare the TH1902 10 mg/ml stock solution. • 4. Swirl the content of the bottle to form opaque mixture and place a stir bar. • 5. Place bottle in the heating apparatus (glass water bath and mount for holding vial with thermometer and stir bar on a digital heating plate). Begin mixing the content of the bottle. • 6. Gradually increase the temperature of water bath in increments of 5° C. every 30 minutes until mixture turns clear (temperature ramping up to 45° C. over a period of time of about 165 to 180 minutes). […] Transfer the formulation to a graduated glass cylinder and bring to final calculated volume with diluent solution. • 9. […] Perform UPLC analysis against a TH1902 standard curve for quantification and purity assessment. • 11. […]
Two of the sortilin-expressing melanoma cancer cell lines (SK-MEL-28 and B16-F10) were used to monitor whether TH1902 impeded the growth of the cells when administered at 35 mg/kg/week, versus unconjugated docetaxel at 15 mg/kg/week. This is the maximum tolerated dose (MTD) for free docetaxel, and the TH1902 formulation contains the equivalent quantity of docetaxel within this peptide drug conjugate. […] This difference was quantified when the control group reached the tumor volume endpoint at day-42. […]

[1] = mouse plasma levels after IV bolus injection; format: in vivo, mice
Description: In addition, TH1902 and docetaxel mouse plasma levels were assessed in TH1902-treated mice.

[2] = tested on: PANC-1 subcutaneous tumor xenografts; test: pancreatic cancer xenograft model (PANC-1); format: in vivo, mice; details: vs vehicle
Description: as §1
as §2, with “6.” for “6. Gradually increase the temperature of water bath in increments of 5° C. every 30 minutes until mixture turns clear (temperature ramping up to 45° C. over a period of time of about 165 to 180 minutes).”

[3] = tested on: MDA-MB-231 breast cancer cells; test: cells; format: cell-based, human; details: read-out: IC50 value, anti-proliferative activity
Description: In vitro testing of the TH19P01 peptide and the TH1902 conjugate compound was conducted.

[4] = tested on: MDA-MB-231/Luc (triple-negative breast cancer) xenografts; test: tumor growth inhibition, MDA-MB-231/Luc xenografts in nude mice, TH1902 formulations (Examples 3A, 3B); format: in vivo
Description: TH1902 and docetaxel (supplied by Wonda Science Inc.) were used. […] Both treatments were administered intravenously, on a per week basis over 6 weeks.
8 different formulations comprising TH1902 were tested.
These are derived from a triple-negative breast cancer (TNBC) and they stably express firefly luciferase. […] Cell counts and cell viability were assessed with a BioRad TC20™ automated cell counter.
60 young adult, female, homozygous nude mice (Crl:CD1-Foxn1^nu), obtained from Charles River Canada Inc. (St-Constant, Quebec) were used in this study. Healthy mice were selected based on normal veterinary examination.
Tumor growth was monitored, and mice were randomly assigned to groups the vehicle group, docetaxel group or one of the 8 TH1902 formulations group (6 mice per group) for further treatment when tumor volumes reached 40-140 mm^3 or after 2-3 days of significant increase. Experimental procedures
Mice were first anesthetized with isoflurane and oxygen. Two-dimensional measurements were taken with electronic calipers during the study and tumor volume was calculated using the following formula: tumor volume (mm^3)=0.52*a*b^2, where 0.52 is a constant to calculate the volume of an ellipsoid (π/6), where “a” is the longest diameter and “b” is the shortest diameter[3]. […]
All mice were observed daily for changes in appearance and behavior, and events recorded when appropriate. […]

[5] = in vitro stability in mouse plasma; format: in vitro ADME; details: 37° C.
Description: Additional testing was conducted to study the stability of formulated TH1902 in mouse plasma. TH1902 was either solubilized in […] or formulated with solubilizing agents (Formulation: DMSO/Solutol™ HS15/Tween™-80/EtOH/Sol. Ac. Ac./D5W/water in the following V/V proportion 5/6/2.5/0.75/0.005/69/16.75). TH1902 was incubated in mouse plasma at 37° C. for the indicated times. Plasma proteins were precipitated by the addition of 4 volumes of ACN (87%) with formic acid (0.125%) followed by centrifugation (10,000 rpm×5 min). Supernatants were injected in UPLC/MS. Peak area corresponding to TH1902 was calculated and compared to time 0.

Row | SMILES | tumor growth / tumor volumes (SK-MEL-28 xenografts; TH1902 35 mg/kg/week, docetaxel 15 mg/kg/week, endpoint day-42, FIG. 27) | body weight of mice (SK-MEL-28 xenografts; mouse, in vivo) | docetaxel concentration that can be measured in plasma ([1]; administered as a free drug) | tumor growth / tumor size, low dose ([2]; docetaxel 3.75 mg/kg, TH1902 8.75 mg/kg, day 21 and extended) | tumor growth / tumor size, high dose ([2]; docetaxel 15 mg/kg (MTD), TH1902 35 mg/kg, day 21) | IC50 ([3]; Homo sapiens) [nM] | tumor volumes / tumor growth up to Day 24 ([4]; 8.75 mg/kg/week TH1902, docetaxel at ¼ MTD, vs vehicle, FIG. 16) | ΔT/ΔC (%) (at endpoint, Day-24) ([4]; 8.75 mg/kg/week of TH1902 (docetaxel 3.75 mg/kg)) | body weight of mice (SK-MEL-28 xenografts; TH1902 35 mg/kg/week, docetaxel 15 mg/kg/week) | concentration of docetaxel released from TH1902 in plasma ([1]; mouse plasma, IV bolus injection 50 mg/kg TH1902) | plasma concentration of TH1902 ([1]; mouse plasma, IV bolus injection 50 mg/kg TH1902, FIG. 12) | half-life ([5]; TH1902 formulated with solubilizing agents (DMSO/Solutol HS15/Tween-80/EtOH/Sol. Ac. Ac./D5W/water 5/6/2.5/0.75/0.005/69/16.75)) [h] | half-life ([5]; TH1902 solubilized in DMSO) [h] | IC50 [3] [nM]
1 | CC(=O)O[C@@]12CO[C@@H]1C[C@H](O)[C@@]1(C)C(=O)[C@H](O)C3=C(C)[C@@H](OC(=O)[C@H](O)[C@@H](NC(=O)OC(C)(C)C)c4ccccc4)C[C@@](O)([C@@H](OC(=O)c4ccccc4)[C@H]21)C3(C)C [docetaxel] | inhibited tumor growth | remained within −20% endpoint limit | 15-20% | very similar in size to those treated with vehicle; also recorded: indistinguishable | Decreased tumor growth; also recorded: significant decreases in tumor size | 0.56 ± 0.19 | grow slightly faster than those in the control animals | 143 |  |  |  |  |  | 
2 | CCCC[C@H](NC(=O)[C@H](CC(N)=O)NC(=O)[C@H](CCCNC(=N)N)NC(=O)[C@@H](NC(=O)CNC(=O)[C@H](C)NC(=O)[C@H](CCCCNC(=O)CCC(=O)O[C@@H](C(=O)O[C@H]1C[C@@]2(O)[C@@H](OC(=O)c3ccccc3)[C@@H]3[C@]4(OC(C)=O)CO[C@@H]4C[C@H](O)[C@@]3(C)C(=O)[C@H](O)C(=C1C)C2(C)C)[C@@H](NC(=O)OC(C)(C)C)c1ccccc1)NC(=O)[C@H](C)NC(=O)[C@H](CCCNC(=N)N)NC(=O)[C@@H](NC(=O)CNC(C)=O)C(C)C)C(C)C)C(=O)N[C@@H](Cc1ccccc1)C(=O)N[C@@H](CCCCNC(=O)CCC(=O)O[C@@H](C(=O)O[C@H]1C[C@@]2(O)[C@@H](OC(=O)c3ccccc3)[C@@H]3[C@]4(OC(C)=O)CO[C@@H]4C[C@H](O)[C@@]3(C)C(=O)[C@H](O)C(=C1C)C2(C)C)[C@@H](NC(=O)OC(C)(C)C)c1ccccc1)C(=O)N[C@@H](CO)C(=O)N[C@@H](CCC(=O)O)C(=O)N[C@@H](CO)C(=O)N[C@@H](Cc1ccc(O)cc1)C(=O)O [TH1902, Acetyl-GVRAK(docetaxel)AGVRN(Nle)FK(docetaxel)SESY] (Ac-GVRAK(X1)AGVRN[Nle]FK(X1)SESY-OH) |  |  |  |  |  |  |  |  | remained within −20% endpoint limit | very low concentration | high plasma concentration | 30 | 5 | 0.19 ± 0.09
